According to article PMC8488497, “In silico and in vitro analysis of an Aspergillus niger chitin deacetylase to decipher its subsite sugar preferences” (The Journal of Biological Chemistry, 2021):

Target: T1, AngCDA (Aspergillus niger, UniProt A2QZC8)
T1 construct: gene An12g04480; signal peptide (residues 1-19) removed; N- and C-terminal Strep-tag II; E. coli Rosetta 2 (DE3); monomer; the crystal used a pelB / C-terminal Strep-tag II construct
T1 sequence (A2QZC8 20-239): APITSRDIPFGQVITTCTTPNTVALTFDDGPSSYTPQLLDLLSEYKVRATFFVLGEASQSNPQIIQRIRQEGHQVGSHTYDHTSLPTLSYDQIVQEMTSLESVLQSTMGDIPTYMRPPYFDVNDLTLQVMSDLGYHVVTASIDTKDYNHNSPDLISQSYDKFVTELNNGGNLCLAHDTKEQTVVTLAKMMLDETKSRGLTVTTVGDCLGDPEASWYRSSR
Experiment: HILIC-ESI-MS product quantification and sequencing
Assay type: biochemical
Conditions: deacetylation; 0.5 mM substrate, 50 mM TEA pH 7, 37 °C

Row | Structure (SMILES) | HILIC-ESI-MS product quantification and sequencing
1 | CC(=O)N[C@H]1[C@H](O[C@H]2[C@H](O)[C@@H](NC(C)=O)C(O)O[C@@H]2CO)O[C@H](CO)[C@@H](O[C@@H]2O[C@H](CO)[C@@H](O[C@@H]3O[C@H](CO)[C@@H](O)[C@H](O)[C@H]3NC(C)=O)[C@H](O)[C@H]2NC(C)=O)[C@@H]1O (some centres unmarked) [A4, chitotetraose] | mode of action of AngCDA deacetylating chitotetraose (A4)
2 | CC(=O)N[C@H]1[C@H](O[C@H]2[C@H](O)[C@@H](NC(C)=O)[C@H](O[C@H]3[C@H](O)[C@@H](NC(C)=O)C(O)O[C@@H]3CO)O[C@@H]2CO)O[C@H](CO)[C@@H](O[C@@H]2O[C@H](CO)[C@@H](O[C@@H]3O[C@H](CO)[C@@H](O)[C@H](O)[C@H]3NC(C)=O)[C@H](O)[C@H]2NC(C)=O)[C@@H]1O (some centres unmarked) [A5] | mode of action of AngCDA deacetylating chitopentaose (A5)
